In patent US4904658A, “Substituted-6H,8H-pyrimido-[1,2,3-cd]purine-8,10-(9H)-diones and substituted-6H,10H-pyrimido[1,2-cd]purin-10-ones” (American Cyanamid Company, priority 1988, dated 1990):
Values belong to the compound of their own block, whether it stands above or below them.

How the values were obtained:
[1] = Passive Avoidance Anoxic Induced Amnesia Test in mice; assay type: in vivo, Swiss-Webster mice; conditions: vs saline control, 30% considered active
Source text: Another in vivo test associated with decreased neural function in mammals is the Passive Avoidance Anoxic Induced Amnesia Test. This test is used to determine the attenuation of anoxic induced amnesia in mice treated with drug, as compared to saline treated control animals with no drug.
A shock-motivated, single trial, step-through passive avoidance procedure is used. Groups of 25 Swiss-Webster, middle-aged mice (9 months of age) are placed singly in the front chamber of a 2-chamber box and are allowed to voluntarily cross into the rear chamber. As soon as the mouse enters the rear chamber, a door automatically traps the animal and a mild electric shock (0.4 mA for 4 seconds) is delivered to its feet. Following the foot shock, the mice are initially placed in an anoxic environment (0% oxygen) for 12 seconds, which quickly induces unconsciousness. They are then placed in an hypoxic environment (15% oxygen) for four minutes which prolongs the oxygen deprived state, maintaining unconsciousness. All testing is performed 24 hours later, and in all cases the mice appear fully recovered from the previous anoxic/hypoxic treatment. All test compounds are administered intraperitoneally at a dose of 10-200 mg/kg, 30 minutes prior to training and testing. Control animals are injected intraperitoneally only with saline at 0.01 cc/g of body weight.
The latency to enter the rear chamber is recorded for both training and testing. Presumably, the more the animal remembers being shocked, the greater it will inhibit going into the rear chamber and the higher will be its latency to re-enter. An improvement of 30% over saline control scores is considered active.

[2] = Hypoxic Survival Test in mice; assay type: in vivo, Royal Hart mice; conditions: survival after 5 minutes; for % Survivors: 30 min before hypoxia
Experimental: A useful in vivo test that measures how effectively central nervous system-acting drugs enhance survival in a hypoxic environment, presumably by improving the ratio of energy supply to demand is known as the Hypoxic Survival Test. […] Drugs are tested by intraperitoneally injecting groups of mice 30 minutes prior to placing them in a hypoxic mixture and measuring survival. The rationale of this test is that drugs which enhance survival under hypoxic conditions without concomitant, depression or sedative side effects, may do so by enhancing energy metabolism, or by preserving normal brain function under conditions of reduced energy metabolism. Given the dependence of the brain on a constant supply of energy, drugs which have this property may have many far-reaching therapeutic indications, including recovery from stroke and closed head injury, as well as reducing the deleterious effects of the aging central nervous system.
Groups of 20 Royal Hart mice (6 weeks of age) are injected intraperitoneally with test compound (1-200 mg/kg) 30 minutes prior to placing them in a hypoxic mixture (10% oxygen in 90% […]) and measuring survival after 5 minutes.
A separate group of 20 mice is injected intraperitoneally with saline solution (0.01 cc/g of body weight) and processed as described above.
Still another group of 20 mice is injected intraperitoneally with 0.125 mg/kg of physostigmine and processed as described above.

[3] = Reduction of mean arterial blood pressure in spontaneously hypertensive rats; assay type: in vivo, spontaneously hypertensive rats of the Okamoto strain; conditions: gavage, 100 mg/kg or less, two doses 24 h apart, measured at 28 hours; average mean arterial blood pressure of the rats 160 mm Hg
Experimental: Certain of the novel compounds of the present invention are active hypotensive agents at non-toxic doses when administered to mammals. These compounds were tested for hypotensive activity by the method of P. S. Chan and D. Poorvin, Clinical and Experimental Hypertension, 1 (6), 817-830 (1979). Male, 16 week old, spontaneously hypertensive rats of the Okamoto strain having an average mean arterial blood pressure of 160+1.5 mm of mercury are used in the test. One to 3 rats are used per test compound. A rat is dosed by gavage with a test compound, suspended in 2% pre-boiled starch at a concentration of 50 mg/ml, at a dose of 100 mg/kg of body weight or less, with 0.9% sodium chloride loading at a dose of 25 ml/kg of body weight. A second identical dose of the test compound, without sodium chloride loading is given 24 hours later. At 28 hours after the initial dose the mean arterial blood pressure is measured by the method of Chan and Poorvin vide supra. The procedure is repeated in a second and third rat when necessary.

[4] = system: brain-specific receptors of rats (3H-benzodiazepine binding); test: Inhibition of the binding of 3H-benzodiazepine to brain-specific receptors of rats; design: species or system rat (Wistar strain); conditions: rat cortex P2 fraction; 3H-diazepam 1.5 nM or 3H-flunitrazepam 1.0 nM; test concentration not given; 12% or more is active
Source text: A test utilized for the determination of anxiolytic activity is the measurement of the ability of test compounds to inhibit the binding of tritiated benzodiazepines to brain-specific receptors of warm-blooded animals. A modification of the method described by R. F. Squires, et al., Nature, 266, No. 21, pg 732 (Apr. 1977) and H. Mohler, et al., Science, 198, pg 849 (1977) was employed.
Male albino rats (Wistar strain, weighing 150-200 g each) were used. The test compounds were solubilized in either dimethylformamide, acetic acid, ethanol or hydrochloric acid.
Whole cortex of rats was homogenized gently in 20 volumes of ice-cold 0.32 M sucrose, centrifuged twice at 1000 g for 10 minutes and then recentrifuged at 30,000 g for 20 minutes to produce a crude P2 -synaptosomal fraction. The P2 -fraction was either: (1) resuspended in twice the original volume in hypotonic 50 mM Tris.HCl (pH 7.4), or (2) resuspended in one-half the original volume in hypotonic 10 mM Tris.HCl (pH 7.4) and frozen (-20° C.) until time of use. Frozen P2 preparations were thawed and resuspended in four times the original homogenizing volume at time of assay.
The binding assay consisted of 300 μl of the P2 -fraction suspension (0.2-0.4 mg protein), 100 μl of test drug and 100 μl of ^3 H-diazepam (1.5 nM, final concentration) or ^3 H-flunitrazepam (1.0 nM, final concentration) which was added to 1.5 ml of 50 mM Tris.HCl (pH 7.4). Non-specific binding controls and total binding controls received 100 μl of diazepam (3 μM final concentration) and 100 μl of deionized water, respectively, in place of the test compound. Incubation for 30 minutes proceeded in ice and was terminated by filtration, under vacuum, through glass fiber filters. […] After drying at 50°-60° C. for 30 minutes, 10 ml of diluent was added and the radioactivity determined in a scintillation counter.
Inhibition of binding was calculated by the difference between total binding and binding in the presence of test compound, divided by the total binding, X 100. […]

SMILES: O=c1[nH]c(=O)n2c3c1ncn3C(c1cccc(Cl)c1)=CC2 [4-(3-Chlorophenyl)-6H,8H-pyrimido[1,2,3-cd]purine-8,10(9H)-dione]
- % Improvement ([1]; 25 mg/kg i.p.): 42%
- % Improvement ([1]; 50 mg/kg i.p.): 43%

SMILES: O=c1[nH]c(=O)n2c3c1ncn3C(c1cccc([N+](=O)[O-])c1)=CC2 [4-(3-Nitrophenyl)-6H,8H-pyrimido[1,2,3-cd]purine-8,10(9H)-dione]
- % Survivors ([2]; 200 mg/kg i.p.): 47%

SMILES: O=c1[nH]c(=O)n2c3c1ncn3C(c1cccnc1)=CC2 [4-(3-Pyridinyl)-6H,8H-pyrimido[1,2,3-cd]purine-8,10(9H)-dione]
- Mean arterial blood pressure [3]: 127 mm Hg

SMILES: Cc1ccc(C2=CCn3c(=O)[nH]c(=O)c4ncn2c43)cc1 [4-(4-Methylphenyl)-6H,8H-pyrimido[1,2,3-cd]purine-8,10(9H)-dione]
- Mean arterial blood pressure [3]: 127 mm Hg

- % Inhibition of the binding of 3H-benzodiazepine [4]: 54%
SMILES: O=c1[nH]c(=O)n2c3c1ncn3C(c1cccc(C(F)(F)F)c1)=CC2 [4-[3-(Trifluoromethyl)phenyl]-6H,8H-pyrimido[1,2,3-cd]purine-8,10(9H)-dione]
- % Improvement ([1]; 50 mg/kg i.p.): 144%
- % Improvement ([1]; 100 mg/kg i.p.): 44%

SMILES: O=c1[nH]c(=O)n2c3c1ncn3C(c1ccc(N3CCOCC3)cc1)=CC2 [4-[4-(4-Morpholinyl)phenyl]-6H,8H-pyrimido[1,2,3-cd]purine-8,10(9H)-dione]
- % Improvement ([1]; 25 mg/kg i.p.): 34%
- % Survivors ([2]; 100 mg/kg i.p.): 55%

- % Inhibition of the binding of 3H-benzodiazepine [4]: 13%
SMILES: CSc1nc(=O)c2ncn3c2n1CC=C3c1ccccc1 [8-(Methylthio)-4-phenyl-6H,10H-pyrimido[1,2-cd]-purin-10-one]

SMILES: O=c1c2ncn3c2n(c(=O)n1Cc1ccccc1)CC=C3c1cccc(C(F)(F)F)c1 [9-(Phenylmethyl)-4-[3-(trifluoromethyl)phenyl]-6H,8H-pyrimido[1,2,3-cd]purine-8,10(9H)-dione]
- Mean arterial blood pressure [3]: 132 mm Hg

- % Inhibition of the binding of 3H-benzodiazepine [4]: 17%
SMILES: CCn1c(=O)c2ncn3c2n(c1=O)CC=C3c1cccc(C(F)(F)F)c1 [9-Ethyl-4-[3-(trifluoromethyl)phenyl]-6H,8H-pyrimido[1,2,3-cd]purine-8,10(9H)-dione]

SMILES: Cn1c(=O)c2ncn3c2n(c1=O)CC=C3c1cccc(C(F)(F)F)c1 [9-Methyl-4-[3-(trifluoromethyl)phenyl]-6H,8H-pyrimido[1,2,3-cd]purine-8,10(9H)-dione]
- % Improvement ([1]; 10 mg/kg i.p.): 66%
- % Improvement ([1]; 25 mg/kg i.p.): 69%
- % Improvement ([1]; 50 mg/kg i.p.): 56%
- % Improvement ([1]; 100 mg/kg i.p.): 39%

SMILES: CNC(=O)Oc1ccc2c(c1)[C@]1(C)CCN(C)[C@@H]1N2C [physostigmine, reference compound]
- physostigmine treated mice surviving ([2]; 10% oxygen, 0.125 mg/kg i.p., saline controls 5-20%): 60-80%
